The supplement of paper PMC10331698
± gives the standard deviation of the averaged measurements.

Legend:
Experiment in all cases: level (log10 ratio to DMSO vehicle control); higher = higher biomarker level / cell amount than vehicle control
Conditions in all cases: in DMSO
[1] = compound: C=CC(F)(F)C(F)(F)C(F)(F)C(F)(F)C(F)(F)C(F)(F)C(F)(F)C(F)(F)C=C [1,8-Divinylperfluorooctane]
Description: (§1)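 BioMAP Diversity Plus panel of 12 human primary cell co-culture systems (3C, 4H, LPS, SAg, BT, BF4T, BE3C, CASM3C, HDF3CGF, KF3CT, MyoF, Mphg). Compounds were added 1 h before stimulation and left for 24 h (MyoF 48 h; BT 72 h for soluble read-outs or 6 d for IgG). Biomarkers were read by ELISA, cytotoxicity by SRB, PBMC viability and proliferation by Alamar Blue. Each well value was divided by the mean of 8 DMSO control wells on the same plate and log10 transformed; duplicate blinded samples were tested at 4 concentrations.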

[2] = compound: CCN(CCO)S(=O)(=O)C(F)(F)C(F)(F)C(F)(F)C(F)(F)C(F)(F)C(F)(F)C(F)(F)C(F)(F)F [N-Ethyl-N-(2-hydroxyethyl)perfluorooctanesulfonamide]
Description: as §1

[3] = compound: FC(F)C(F)(F)COCC1CO1 [((2,2,3,3-Tetrafluoropropoxy)methyl)oxirane]
Description: as §1

Perfluorobutanoic acid = compound: O=C(O)C(F)(F)C(F)(F)C(F)(F)F [Perfluorobutanoic acid]
Description: as §1

[4] = compound: O=C(O)C(F)(F)C(F)(F)C(F)F [4H-Perfluorobutanoic acid]
Description: as §1

[5] = compound: O=C(O)C(F)(F)OC(F)(F)C(F)(F)OC(F)(F)C(=O)O [Perfluoro-3,6-dioxaoctane-1,8-dioic acid]
Description: as §1

[6] = compound: O=S(=O)(O)C(F)(F)C(F)(F)C(F)(F)C(F)(F)C(F)(F)C(F)(F)F [Perfluorohexanesulfonic acid]
Description: as §1

Test System | level (log10) ([1]; 6700 nM) | level (log10) ([1]; 20000 nM) | level (log10) ([2]; 6700 nM) | level (log10) ([2]; 20000 nM) | level (log10) ([3]; 6700 nM) | level (log10) ([3]; 20000 nM) | level (log10) ([3]; 60000 nM) | level (log10) (Perfluorobutanoic acid; 6700 nM) | level (log10) (Perfluorobutanoic acid; 20000 nM) | level (log10) (Perfluorobutanoic acid; 60000 nM) | level (log10) ([4]; 6700 nM) | level (log10) ([4]; 20000 nM) | level (log10) ([4]; 60000 nM) | level (log10) ([5]; 6700 nM) | level (log10) ([5]; 20000 nM) | level (log10) ([5]; 60000 nM) | level (log10) ([6]; 6700 nM) | level (log10) ([6]; 20000 nM) | level (log10) ([6]; 60000 nM)
BE3C:SRB | -0.0005 ± 0.00071 | 0 ± 0.0014 | -0.0175 ± 0.011 | -0.04 ± 0.0071 | -0.0015 ± 0.005 | -0.001 ± 0.0014 | 0.0085 ± 0.023 | -0.009 ± 0.011 | 0 ± 0.0042 | -0.0005 ± 0.011 | -0.003 ± 0.0014 | -0.004 ± 0.0099 | 0.0025 ± 0.0021 | -0.0005 ± 0.0021 | -0.0035 ± 0.0021 | 0.0025 ± 0.011 | -0.0035 ± 0.022 | -0.013 ± 0.0085 | -0.017 ± 0.011
BE3C:uPA | -0.0245 ± 0.0064 | -0.0315 ± 0.0078 | -0.0025 ± 0.022 | -0.018 ± 0.031 | -0.0105 ± 0.025 | -0.021 ± 0.035 | -0.004 ± 0.025 | -0.0065 ± 0.026 | -0.007 ± 0.011 | -0.015 ± 0.014 | -0.016 ± 0.05 | -0.009 ± 0.016 | 0.0055 ± 0.06 | -0.0145 ± 0.005 | -0.013 ± 0.014 | -0.0025 ± 0.0064 | 0.0145 ± 0.016 | -0.0005 ± 0.028 | 0.0115 ± 0.019
HDF3CGF:CD54/ICAM-1 | 0.003 ± 0.028 | 0.0475 ± 0.028 | 0.133 ± 0.019 | 0.089 ± 0.0042 | 0.001 ± 0.013 | 0.006 ± 0.0014 | -0.007 ± 0.018 | -0.005 ± 0.016 | 0.0035 ± 0.00071 | 0.001 ± 0.0057 | 0.009 ± 0.021 | 0.013 ± 0.0099 | 0.0035 ± 0.005 | -0.0095 ± 0.0092 | 0.0015 ± 0.00071 | -0.0085 ± 0.0035 | -0.0195 ± 0.00071 | -0.0325 ± 0.00071 | -0.0345 ± 0.0035
3C:CCL2/MCP-1 | -0.0055 ± 0.0021 | 0.031 ± 0.025 | -0.032 ± 0.016 | -0.145 ± 0.032 | 0.0045 ± 0.025 | 0.016 ± 0.028 | 0.0215 ± 0.042 | 0.007 ± 0.0071 | 0.0075 ± 0.011 | 0.028 ± 0.025 | -0.02 ± 0.061 | -0.006 ± 0.05 | 0.0215 ± 0.03 | 0.002 ± 0.016 | -0.007 ± 0.023 | 0.01 ± 0.03 | 0.0055 ± 0.011 | 0.007 ± 0.017 | 0.017 ± 0.031
KF3CT:uPA | -0.0185 ± 0.0035 | -0.0185 ± 0.028 | 0.022 ± 0.0028 | -0.0225 ± 0.0021 | 0.0015 ± 0.0092 | -0.0045 ± 0.032 | -0.0005 ± 0.015 | -0.017 ± 0.017 | -0.018 ± 0.0099 | 0.005 ± 0.02 | 0.0125 ± 0.028 | 0.0275 ± 0.0064 | 0.007 ± 0.035 | 0.0005 ± 0.0078 | 0 ± 0.0071 | 0.012 ± 0.0014 | -0.0135 ± 0.015 | -0.0105 ± 0.015 | -0.002 ± 0.0014
CASM3C:CD87/uPAR | -0.002 ± 0.014 | 0.0175 ± 0.0035 | -0.0595 ± 0.0092 | -0.09 ± 0.038 | -0.029 ± 0.016 | -0.0415 ± 0.005 | -0.034 ± 0.014 | -0.005 ± 0.013 | 0.0095 ± 0.0021 | -0.0085 ± 0.026 | -0.016 ± 0.013 | 0 ± 0.02 | 0.0055 ± 0.022 | -0.023 ± 0.03 | -0.023 ± 0.018 | -0.0255 ± 0.00071 | 0.007 ± 0.0014 | 0.001 ± 0.0057 | 0.0065 ± 0.012
HDF3CGF:TIMP-2 | 0.025 ± 0.013 | -0.0115 ± 0.012 | 0.136 ± 0.0057 | 0.108 ± 0.0071 | -0.018 ± 0.0057 | -0.008 ± 0.0071 | -0.0275 ± 0.0078 | -0.0015 ± 0.0035 | -0.0055 ± 0.015 | -0.0115 ± 0.036 | -0.0295 ± 0.066 | -0.01 ± 0.044 | -0.003 ± 0.059 | -0.0145 ± 0.035 | -0.0075 ± 0.011 | 0.001 ± 0.027 | -0.0055 ± 0.015 | 0.0095 ± 0.0035 | -0.02 ± 0.0099
CASM3C:M-CSF | -0.0375 ± 0.011 | -0.0235 ± 0.023 | 0.0045 ± 0.00071 | 0.0395 ± 0.0092 | -0.0115 ± 0.021 | -0.029 ± 0.0014 | -0.0025 ± 0.084 | -0.0095 ± 0.0064 | -0.0205 ± 0.013 | 0.0275 ± 0.063 | 0.004 ± 0.045 | -0.009 ± 0.016 | 0.059 ± 0.027 | 0.0205 ± 0.016 | -0.0025 ± 0.0035 | 0.0385 ± 0.011 | -0.007 ± 0.028 | -0.012 ± 0.014 | 0.0305 ± 0.00071
MyoF:CXCL8/IL-8 | -0.028 ± 0.014 | 0.0085 ± 0.035 | -0.193 ± 0.011 | -0.12 ± 0.022 | -0.0175 ± 0.005 | -0.0145 ± 0.018 | 0.0095 ± 0.025 | -0.03 ± 0.1 | -0.0355 ± 0.073 | 0.025 ± 0.024 | -0.0125 ± 0.059 | -0.0145 ± 0.0035 | 0.0465 ± 0.074 | -0.0025 ± 0.023 | -0.012 ± 0.0085 | 0.034 ± 0.045 | 0.001 ± 0.061 | -0.0185 ± 0.063 | -0.018 ± 0.051
CASM3C:Proliferation | -0.018 ± 0.027 | 0.0305 ± 0.013 | 0.011 ± 0.04 | -0.175 ± 0.005 | -0.0215 ± 0.011 | -0.001 ± 0.014 | 0.0145 ± 0.032 | 0.01 ± 0.0099 | -0.0015 ± 0.025 | -0.007 ± 0.017 | 0.0045 ± 0.011 | -0.0185 ± 0.066 | 0.0045 ± 0.04 | 0.0055 ± 0.0035 | -0.0135 ± 0.025 | -0.0075 ± 0.0092 | 0.014 ± 0.014 | 0.002 ± 0.014 | 0.0185 ± 0.011
KF3CT:TIMP-2 | -0.021 ± 0.021 | -0.0205 ± 0.032 | 0.0855 ± 0.037 | 0.04 ± 0.0028 | -0.0135 ± 0.016 | -0.0115 ± 0.019 | -0.0045 ± 0.026 | -0.005 ± 0.014 | -0.009 ± 0.0071 | -0.002 ± 0.0014 | 0.002 ± 0.031 | -0.011 ± 0.016 | 0.004 ± 0.0099 | -0.0075 ± 0.042 | -0.0015 ± 0.04 | 0.0055 ± 0.011 | 0.0005 ± 0.0064 | 0.012 ± 0.0042 | 0.019 ± 0.013
HDF3CGF:CXCL8/IL-8 | -0.0095 ± 0.0021 | -0.002 ± 0.0085 | 0.0345 ± 0.016 | 0.011 ± 0.0071 | -0.0145 ± 0.016 | -0.004 ± 0.0014 | 0.005 ± 0.0085 | -0.002 ± 0.0014 | -0.004 ± 0.0085 | 0.0015 ± 0.0021 | 0.001 ± 0.0014 | 0.0025 ± 0.0078 | 0.0095 ± 0.023 | -0.0005 ± 0.0021 | 0.0135 ± 0.005 | 0.017 ± 0.0042 | 0.0045 ± 0.013 | 0.0035 ± 0.015 | 0.0065 ± 0.016
lMphg:CCL3/MIP-1alpha | -0.019 ± 0.0071 | 0.0065 ± 0.046 | 0.0325 ± 0.035 | 0.112 ± 0.013 | -0.027 ± 0.059 | -0.0385 ± 0.084 | -0.0025 ± 0.026 | -0.0075 ± 0.00071 | -0.0115 ± 0.018 | 0.0355 ± 0.047 | -0.0075 ± 0.037 | 0.004 ± 0.016 | 0.0235 ± 0.011 | -0.036 ± 0.025 | -0.045 ± 0.0042 | -0.027 ± 0.04 | -0.006 ± 0.04 | 0.0055 ± 0.037 | 0.045 ± 0.034
MyoF:Collagen III | -0.02 ± 0.0071 | -0.0115 ± 0.012 | -0.0045 ± 0.022 | -0.228 ± 0.17 | -0.0045 ± 0.0035 | -0.0105 ± 0.005 | -0.005 | -0.0155 ± 0.016 | 0.0025 ± 0.011 | -0.0145 ± 0.025 | 0.022 ± 0.0099 | 0.0155 ± 0.0064 | 0.034 ± 0.014 | 0.0035 ± 0.0078 | -0.005 ± 0.017 | 0.0065 ± 0.015 | 0.0035 ± 0.005 | -0.013 ± 0.0028 | -0.0125 ± 0.033
CASM3C:CXCL9/MIG | -0.013 ± 0.0085 | -0.0115 ± 0.011 | -0.0675 ± 0.005 | -0.166 ± 0.073 | 0.002 ± 0.0085 | -0.009 ± 0.02 | 0.014 ± 0.062 | 0.001 ± 0.0028 | -0.004 ± 0.0028 | 0.007 ± 0.0057 | -0.0035 ± 0.028 | 0.0125 ± 0.00071 | 0.032 ± 0.017 | -0.002 ± 0.0057 | -0.011 ± 0.013 | 0.03 ± 0.047 | 0.003 ± 0.0099 | 0.0045 ± 0.0064 | 0.012 ± 0.0014
